{"source": "paper PMC5342227", "about": "“Polymer micelle formulation for the proteasome inhibitor drug carfilzomib: Anticancer efficacy and pharmacokinetic studies in mice” (PLoS ONE, 2017)", "key": {"[1]": {"target": "T1, proteasome catalytic subunit β5 (Homo sapiens, UniProt P20618+P28074)", "T1 construct": "tumor tissue lysates (10 μg of total protein) were resolved using 12.5% SDS-PAGE; from tissue; host or cells: excised H460 xenograft tumour tissue from NOD/SCID mice", "test": "Immunoblot mobility shift of covalently modified β5 in tumor lysates", "design": "species or system human (H460 xenograft in mice)", "details": "positive control: tumor lysates incubated with 50 nM CFZ for 2 h in vitro", "protocol": "Briefly, tumor tissue lysates (10 μg of total protein) were resolved using 12.5% SDS-PAGE and transferred onto a PVDF membrane (Bio-Rad Laboratories). Membranes were blocked in 5% milk in Tris-buffered saline containing 0.05% Tween-20 (TBST) and probed with the following antibodies; for β5 (dilution 1:1000, Abcam) and β-actin (dilution 1:1000, Cell Signaling). Membranes were washed with TBST and probed with the corresponding secondary antibodies conjugated with horseradish peroxidase. Bound antibodies were visualized using an enhanced chemiluminescence substrate (Thermo Fisher Scientific)."}, "[2]": {"design": "method as in 2 sources, one per row (each row's own in cited_ref): ref 14 = [14]; PMID 23386784; doi:10.2147/BTT.S24580; 14 Nooka A , Gleason C , Casbourne D , Lonial S . Relapsed and refractory lymphoid neoplasms and multiple myeloma with a focus on carfilzomib . Biologics 2013; 7 : 13 – 32 . 10.2147/BTT.S24580 233867 ||| ref 6 = [6]; PMID 21752943; doi:10.1124/dmd.111.039164; 6 Yang J , Wang Z , Fang Y , Jiang J , Zhao F , Wong H , et al Pharmacokinetics, pharmacodynamics, metabolism, distribution, and excretion of carfilzomib in rats . Drug Metab Dispos . 2011; 39 : 1873", "details": "cited from earlier work"}}}
{"substance": "Carfilzomib [CFZ]", "values": [{"measurement": "β5 band mobility compared with negative control (DMSO)", "setting": "[1]", "value": "showed a mobility shift"}, {"measurement": "solubility in aqueous media", "setting": "[2]; background statement, no reference given", "value": "practically insoluble"}, {"measurement": "share of CFZ eliminated from systemic circulation within 30 min", "setting": "[2]; following intravenous injection, peptide backbone cleavage and epoxide hydrolysis", "value": "> 95", "unit": "%"}, {"measurement": "maximum tolerated dose", "setting": "[2]; mice", "value": 5, "unit": "mg/kg"}]}
